Drawing on patent EP4177246A1, “FUSED OXAZEPINES AS INHIBITORS OF PEROXIREDOXINS” (Centro Atlántico del Medicamento, SA, priority 2021, dated 2023), this text covers IC50 for 42 compounds.

The subject of one assay is K562. As to the kind of experiment: MTT cell viability assay, K562 cells. In kind it is cell-based. To be noted: Homo sapiens, 48 h drug exposure. The protocol:
K562 [American Type Culture Collection (ATCC) reference number CCL-243]. This a human cancer cell line derived from the bone marrow of a person with CML.
(§1) Cell viability was assayed by measuring the mitochondrial reduction of the tetrazolium salt 3-(4,5-methyltiazol-2yl)-2,5diphenyl-tetrazolium bromide] (MTT) (Applichen; A2231,0010) [Mosmann T. J Immunol Methods. 1983 16;65(1-2):55-63 (ref. 36); Chuan Y-C et al 2010. Oncogene. 29 (10), 1531-1542 (ref. 37)]. Cells were seeded in 96-well plates in medium (either RPMI, DMEM or McCoys depending on the recommendations from the ATCC) supplemented with 10% FBS (Lonza Cat. N°: 14-502F), 2mM L-Glut (Lonza Cat. N°: BE17-605E) and 100U/ml PEST (Lonza Cat. N°: DE17-605E) at a cell density of 1000-5000 cells/well (96 well plate). Cells were seeded at a density according to their exponential growth phase (normally 1000 to 5000/well). The cells were cultured at 37 °C in the dark in air containing 5% CO2. After 24h either vehicle (0.05% DMSO) or drug were added to culture medium at the indicated concentrations (10 to 0,01microM). After another 48 h, MTT (0.3 mg/ml) was added to cells, followed by incubation for 2-4h at 37 °C in the dark. The medium was then removed and the precipitated formazan was solubilized by the addition of DMSO (200 µL).
(§2) The optical density was measured at 595 nm with the iMark Microplate Reader (BioRad, USA). Data was expressed as percent growth above the level in controls and the results in figures were plotted as means ± SEM of each test point from 3 replicates.
(§3) Statistical analysis. The concentration of drug that provokes 50% reduction of cell viability (IC50) was determined by using non-linear regression analysis and data were fitted to a log concentration vs normalized response curve in GraphPad software v5 (San Diego, CA).
On the technique in general: Tetrazolium assays rely on reduction of a dye to a coloured formazan, in cell work by metabolically active cells.

The subject of a further assay is MDA-MB-231. Briefly: MTT cell viability assay, MDA-MB-231 cells. In kind it is cell-based, human. To be noted: 48 h drug exposure. As to the method:
MDA-MB-231 [American Type Culture Collection (ATCC) reference number HTB-26]. This a human breast cancer cell line derived from a metastatic site from a person.
as §1, §2, §3

For another assay, the system named is HEL 92.1.7. Briefly: MTT cell viability assay, HEL cells. To be noted: Homo sapiens, 48 h drug exposure. The class given is cell-based. As to the method:
HEL 92.1.7 [American Type Culture Collection (ATCC) reference number TIB-180]. This a human cancer cell line derived from the bone marrow of a person with erythroleukemia, which is a form of AML.
as §1, §2, §3

Each structure is given as a SMILES string.

For orientation: IC50 means the concentration that gives 50% inhibition. High values mean weaker potency, low ones greater potency. As for `O=C1C2=C(C(=O)c3ccccc31)N(c1ccc(Cl)cc1)Cc1ccccc1O2` [Compound 3], the IC50 in the assay with K562 was 0.9 µM.
Compound `O=C1C2=C(C(=O)c3c(O)ccc(O)c31)N(c1ccc(Cl)nc1)Cc1ccccc1O2` [Compound 47, 12-(6-chloropyridin-3-yl)-7,10-dihydroxy-12,13-dihydrobenzo[f]naphtho[2,3-b][1,4]-oxazepine-6,11-dione] came in with an IC50 in the assay on MDA-MB-231 (Homo sapiens) of 0.33 µM.
Still for that read-out and setting: the result for `N#Cc1ccc(N2Cc3ccccc3OC3=C2C(=O)c2cccc([N+](=O)[O-])c2C3=O)cc1` [Compound 107] reads 5.9 µM.
Take `NCCN(CCO)c1ccc(N2Cc3ccccc3OC3=C2C(=O)c2c(O)ccc(O)c2C3=O)cn1` [Compound 63]: the IC50 in the assay on MDA-MB-231 (Homo sapiens) was 0.25 µM; in the assay with HEL 92.1.7, 0.09 µM.
On the same counts, the results for `CC(=O)Oc1ccc(OC(C)=O)c2c1C(=O)C1=C(C2=O)N(c2ccc(C#N)cc2)Cc2ccccc2O1` [Compound 67, 12-(4-cyanophenyl)-6,11-dioxo-6,11,12,13-tetrahydrobenzo[f]naphtho[2,3-b][1,4] oxazepine-7,10-diyl diacetate] are 0.28 µM and 0.23 µM.
The compound `CN1CCN(c2cc(O)c3c(c2O)C(=O)C2=C(C3=O)N(c3cccnc3)Cc3ccccc3O2)CC1` [Compound 33] came in with a half-inhibitory concentration (IC50) in the assay with MDA-MB-231 (Homo sapiens) of 0.72 µM.
As to `CCOC(=O)c1ccc2c(c1)CN(c1cccnc1)C1=C(O2)C(=O)c2c(O)ccc(O)c2C1=O` [Compound 51], the IC50 in the assay on MDA-MB-231 (Homo sapiens) was found to be 0.6 µM; in the assay with HEL 92.1.7, 3.31 µM.
Compound `O=C(O)c1ccc2c(c1)CN(c1ccccc1)C1=C(O2)C(=O)c2c(O)ccc(O)c2C1=O` [Compound 50] showed an IC50 in the assay with HEL 92.1.7 of 2.42 µM. In other words, the single-digit micromolar range.
Turning to `COc1cc(F)c(OC)c2c1C(=O)C1=C(Oc3ccccc3CN1c1cccnc1)C2=O` [Compound 35], half-maximal inhibition in the assay on MDA-MB-231 (Homo sapiens) (IC50) required 0.8 µM.
The compound `O=C1C2=C(C(=O)c3c(O)ccc(O)c31)N(c1ccc(C(=O)N3CCOCC3)cc1)Cc1ccccc1O2` [Compound 58, 7,10-dihydroxy-12-(4-(morpholine-4-carbonyl)phenyl)-12,13-dihydrobenzo[f]naphtho[2,3-b][1,4]oxazepine-6,11-dione] had an IC50 in the assay with MDA-MB-231 (Homo sapiens) of 0.5 µM.
In the case of `NS(=O)(=O)c1ccc(N2Cc3cc(Cl)ccc3OC3=C2C(=O)c2ccccc2C3=O)cc1` [Compound 20], in the assay with K562, it took 1.42 µM to reach half-maximal inhibition (IC50).
In the assay on MDA-MB-231 (Homo sapiens), `COc1ccc(OC)c2c1C(=O)C1=C(C2=O)N(c2cccc(C#N)c2)Cc2ccccc2O1` [Compound 94] came in with an IC50 of 1 µM.
On to `COc1cccc2c1OC1=C(C(=O)c3ccccc3C1=O)N(c1ccc(C(N)=O)cc1)C2` [Compound 7], for which the IC50 with K562 was 0.89 µM.
Consider `NS(=O)(=O)c1ccc(N2Cc3ccccc3OC3=C2C(=O)c2c(cccc2[N+](=O)[O-])C3=O)cc1` [Compound 80], for which, in the assay with MDA-MB-231 (Homo sapiens), the IC50 worked out at 6.6 µM.
In the case of `O=C1C2=C(Oc3ccccc3CN2c2cccnc2)C(=O)c2c1cccc2[N+](=O)[O-]` [Compound 27], the IC50 in the assay with MDA-MB-231 (Homo sapiens) worked out at 1.73 µM.
`CC(=O)Oc1ccc(OC(C)=O)c2c1C(=O)C1=C(C2=O)N(c2cccc(C#N)c2)Cc2ccccc2O1` [Compound 82, 12-(3-cyanophenyl)-6,11-dioxo-6,11,12,13-tetrahydrobenzo[f]naphtho[2,3-b][1,4] oxazepine-7,10-diyl diacetate]: the IC50 was found to be 0.8 µM in the assay with MDA-MB-231 (Homo sapiens) and 0.18 µM in the assay with HEL 92.1.7.
With `O=C(O)c1ccc(N2Cc3ccccc3OC3=C2C(=O)c2c(O)ccc(O)c2C3=O)cc1` [Compound 57], the IC50 in the assay with MDA-MB-231 (Homo sapiens) was determined as 1.17 µM; in the assay on HEL 92.1.7, 0.13 µM.
On the same counts, the results for `CC(=O)Oc1ccc(OC(C)=O)c2c1C(=O)C1=C(C2=O)N(c2ccccc2)Cc2ccccc2O1` [Compound 87, 6,11-dioxo-12-phenyl-6,11,12,13-tetrahydrobenzo[f]naphtho[2,3-b][1,4]oxazepine-7,10-diyl diacetate] are 0.15 µM and 0.08 µM.
Take `NC(=O)c1ccc(N2Cc3cc(Cl)ccc3OC3=C2C(=O)c2ccccc2C3=O)cc1` [Compound 21]: in the assay on K562, the IC50 came to 1.12 µM. In other words, the single-digit micromolar range.
Consider `CC(=O)Oc1ccc(OC(C)=O)c2c1C(=O)C1=C(C2=O)N(c2ccc(C(=O)O)cc2)Cc2ccccc2O1` [Compound 53], for which the IC50 in the assay with MDA-MB-231 (Homo sapiens) amounted to 0.64 µM; in the assay on HEL 92.1.7, 0.12 µM.
Turning to `O=C1C2=C(C(=O)c3ccccc31)N(c1ccccn1)Cc1ccccc1O2` [Compound 5, 12-(pyridin-2-yl)-12,13-dihydrobenzo[f]naphtho[2,3-b][1,4]oxazepine-6,11-dione], the IC50 in the assay on K562 came to 0.43 µM.
In the assay with MDA-MB-231 (Homo sapiens), `O=C1C2=C(C(=O)c3c1cccc3[N+](=O)[O-])N(c1cccnc1)Cc1ccccc1O2` [Compound 28] came in with an IC50 of 2 µM. This lies in the single-digit micromolar range.
With `COc1ccc2c(c1)OC1=C(C(=O)c3ccccc3C1=O)N(c1ccc(C#N)cc1)C2` [Compound 14], half-maximal inhibition with K562 (IC50) required 0.97 µM.
As for `CC(=O)Oc1ccc(O)c2c1C(=O)C1=C(Oc3ccccc3CN1c1cccnc1)C2=O` [Compound 90], the IC50 in the assay on HEL 92.1.7 turned out to be 0.09 µM.
On to `N#Cc1ccc(N2Cc3ccccc3OC3=C2C(=O)c2ccc(S(=O)(=O)N4CCOCC4)cc2C3=O)cc1` [Compound 70], for which, in the assay on MDA-MB-231 (Homo sapiens), inhibition was half-maximal at 7.1 µM (IC50).
Compound `NS(=O)(=O)c1ccc(N2Cc3ccccc3OC3=C2C(=O)c2cccc([N+](=O)[O-])c2C3=O)cc1` [Compound 79] registered an IC50 with MDA-MB-231 (Homo sapiens) of 6.8 µM.
`COc1ccc(OC)c2c1C(=O)C1=C(C2=O)N(c2ccc(C#N)cc2)Cc2ccccc2O1` [Compound 30] registered an IC50 in the assay on MDA-MB-231 (Homo sapiens) of 0.89 µM.
For `N#Cc1ccc(N2Cc3ccccc3OC3=C2C(=O)c2ccc(Br)c(O)c2C3=O)cc1` [Compound 74, 4-(8-bromo-7-hydroxy-6,11-dioxo-6,11-dihydrobenzo[f]naphtho[2,3-b][1,4]oxazepin-12(13H)-yl)benzonitrile], in the assay on MDA-MB-231 (Homo sapiens), inhibition was half-maximal at 1.8 µM (IC50).
Consider `CN1CCN(c2cc(O)c3c(c2O)C(=O)C2=C(C3=O)N(c3ccc(C#N)cc3)Cc3ccccc3O2)CC1` [Compound 32], for which the midpoint of inhibition in the assay on MDA-MB-231 (Homo sapiens), the IC50, lay at 0.79 µM.
`CC(=O)Oc1ccc(O)c2c1C(=O)C1=C(C2=O)N(c2ccccc2)Cc2ccccc2O1` [Compound 88]: in the assay on HEL 92.1.7, the IC50 turned out to be 0.08 µM.
For `CC(=O)Oc1ccc(OC(C)=O)c2c1C(=O)C1=C(Oc3ccccc3C(c3ccc(N(C)C)nc3)N1)C2=O` (stereo not drawn) [Compound 95, 12-(6-(dimethylamino)pyridin-3-yl)-6,11-dioxo-6,11,12,13-tetrahydrobenzo[f]naphtha [2,3-b][1,4]oxazepine-7,10-diyl diacetate], the IC50 in the assay with MDA-MB-231 turned out to be 0.15 µM.
As to `O=C1C2=C(C(=O)c3ccc(S(=O)(=O)N4CCOCC4)cc31)N(c1cccnc1)Cc1ccccc1O2` [Compound 71], the midpoint of inhibition in the assay on MDA-MB-231 (Homo sapiens), the IC50, lay at 3.2 µM. This counts as single-digit micromolar.
Consider `O=C(O)c1ccc2c(c1)CN(c1cccnc1)C1=C(O2)C(=O)c2c(O)ccc(O)c2C1=O` [Compound 52], for which the IC50 in the assay with MDA-MB-231 (Homo sapiens) and in the assay on HEL 92.1.7 was more than 10 µM throughout.
In the assay with K562, `O=C(O)c1ccc(N2Cc3ccccc3OC3=C2C(=O)c2ccccc2C3=O)cc1` [Compound 18] gave an IC50 of more than 10 µM.
`N#Cc1ccc(N2Cc3ccccc3OC3=C2C(=O)c2c(cccc2[N+](=O)[O-])C3=O)cc1` [Compound 108] yielded an IC50 with MDA-MB-231 (Homo sapiens) of 2.95 µM. This lies in the single-digit micromolar range.
Consider `CN(C)CCOc1ccc(N2Cc3ccccc3OC3=C2C(=O)c2ccccc2C3=O)cn1` [Compound 72], for which, in the assay on MDA-MB-231 (Homo sapiens), the half-maximal inhibitory concentration (IC50) came out at 0.72 µM. This IC50 lies about 4.1-fold lower than the previous one.
On to `CC(=O)Oc1ccc(OC(C)=O)c2c1C(=O)C1=C(C2=O)N(c2cccc(C(N)=O)c2)Cc2ccccc2O1` [Compound 92, 12-(3-carbamoylphenyl)-6,11-dioxo-6,11,12,13-tetrahydrobenzo[f]naphtho[2,3-b][1,4] oxazepine-7,10-diyl diacetate], for which the figures for the IC50 in the assay on MDA-MB-231 (Homo sapiens) and in the assay on HEL 92.1.7 were 0.15 µM and 0.12 µM, respectively.
For the compound `COc1cc(F)c(OC)c2c1C(=O)C1=C(Oc3ccccc3CN1c1ccc(C#N)cc1)C2=O` [Compound 31], the IC50 in the assay on MDA-MB-231 (Homo sapiens) was 1.51 µM.
Same read-out and setting: in the case of `NS(=O)(=O)c1ccc(N2Cc3ccccc3OC3=C2C(=O)c2ccc(S(=O)(=O)N4CCOCC4)cc2C3=O)cc1` [Compound 29] it was more than 10 µM.
As for `CC(=O)Oc1ccc(OC(C)=O)c2c1C(=O)C1=C(Oc3ccccc3C(c3ccc(N4CCOCC4)nc3)N1)C2=O` (stereo not drawn) [Compound 96, 12-(6-morpholinopyridin-3-yl)-6,11-dioxo-6,11,12,13-tetrahydrobenzo[f]naphtha [2,3-b][1,4] oxazepine-7,10-diyl diacetate], half-maximal inhibition in the assay on MDA-MB-231 (IC50) required 0.13 µM.
In the assay on MDA-MB-231 (Homo sapiens), `CS(=O)(=O)Nc1cccc2c1C(=O)C1=C(C2=O)N(c2ccc(C#N)cc2)Cc2ccccc2O1` [Compound 78, N-(12-(4-cyanophenyl)-6,11-dioxo-6,11,12,13-tetrahydrobenzo[f]naphtha [2,3-b][1,4]oxazepin-7-yl)methanesulfonamide] registered an IC50 of 6.9 µM.
Still for that read-out and setting: the result for `N#Cc1ccc(N2Cc3ccccc3OC3=C2C(=O)c2c(O)cc(F)c(O)c2C3=O)cc1` [Compound 34] reads 0.74 µM.
